Experimental findings from patent publication US11905281B2 (Amgen Inc., priority 2017, dated 2024) are described below.

Assay [1] concerns the target T1, GDP-bound KRAS protein (aa 1-169), containing both G12C and C118A amino acid substitutions (Homo sapiens, UniProt P01116, C118A/G12C). Kind of assay: Coupled Nucleotide Exchange Assay (Table 15 conditions: 2 hours pre-incubation). It is filed as biochemical. The conditions noted are these: 2 hours compound pre-incubation (Table 15 conditions). Here is the method: For compounds in Table 15, the following assay conditions were employed:
Following compound pre-incubation, purified SOS protein (aa 564-1049) and GTP (Roche 10106399001) were added to the assay wells and incubated for an additional hour. […] The assay plates were then read on a PerkinElmer EnVision Multilabel Reader, using AlphaScreen® technology, and data were analyzed using a 4-parameter logistic model to calculate IC50 values.

Assay [2] deals with Phosphorylation of ERK1/2 in MIA PaCa-2 cells. Kind of assay: Phospho-ERK1/2 MSD Assay, MIA PaCa-2 (Table 16 conditions: 2 hours compound treatment). It is filed as cell-based. The conditions noted are these: 10 ng/mL EGF for 10 min, read-out: p-ERK IC50 (MIA PaCa-2). Here is the method:
(§1) For compounds in Table 16, the following assay conditions were employed:
Sixteen hours prior to compound treatment, MIA PaCa-2 or A549 cells were seeded in 96-well cell culture plates at a density of 25,000 cells/well and incubated at 37° C., 5% CO2. A compound dose-response titration was diluted in growth media, added to appropriate wells of a cell culture plate, and then incubated at 37° C., 5% CO2 for 2 hours. […] Phosphorylation of ERK1/2 in compound-treated lysates was assayed using Phospho-ERK1/2 Whole Cell Lysate kits (Meso Scale Discovery K151DWD) according to the manufacturer's protocol. Assay plates were read on a Meso Scale Discovery Sector Imager 6000, and data were analyzed using a 4-parameter logistic model to calculate IC50 values.

Assay [3] deals with T1, GDP-bound KRAS protein (aa 1-169), containing both G12C and C118A amino acid substitutions. Kind of assay: Coupled Nucleotide Exchange Assay (Table 16 conditions: 5 min pre-incubation). It is filed as biochemical. The following applies: 5 min compound pre-incubation; SOS-mediated nucleotide exchange, AlphaScreen. The protocol: as §1
The assay plates were then read on a PerkinElmer EnVision Multilabel Reader, using AlphaScreen® technology, and data were analyzed using a 4-parameter logistic model to calculate IC50 values.

The mark [4] stands for this setting: Homo sapiens, MIA PaCa-2, MIA PaCa-2 cells.

Each structure is given as a SMILES string. Read-outs that look alike come from different tables or passages of the source.

T1 sequence (P01116 1-169 isoform P01116-2 G12C/C118A): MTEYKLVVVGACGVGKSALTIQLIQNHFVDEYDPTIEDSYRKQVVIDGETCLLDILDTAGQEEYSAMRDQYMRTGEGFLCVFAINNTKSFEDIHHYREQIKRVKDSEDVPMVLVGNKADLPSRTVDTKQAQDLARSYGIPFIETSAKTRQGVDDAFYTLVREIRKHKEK

With `C=CC(=O)N1CCN(c2snc3nc(-c4cc(OC)cc5ccccc45)c(Cl)cc23)C(C)C1` (racemic) [Example 2-4, 1-(4-(5-chloro-6-(3-methoxy-1-naphthalenyl)[1,2]thiazolo[3,4-b]pyridin-3-yl)-3-methyl-1-piperazinyl)-2-propen-1-one], in assay [1], the “Coupled exchange IC50” value was over 250000 nM.
Consider `C=CC(=O)N1CCN(c2nc(=O)n(-c3ccccc3C(C)C)c3cc(-c4c(O)cccc4F)c(Cl)cc23)[C@@H](C)C1` (single isomer, unassigned) [Example 8-3-2], for which the “Coupled exchange IC50” value in assay [1] was found to be 340 nM.
On the same count and under the same terms, as for `C=C(CBr)C(=O)N1CCN(c2snc3c(F)c(-c4cc(O)cc5ccccc45)c(Cl)cc23)CC1` (single isomer, unassigned) [Example 18-2, 2-(bromomethyl)-1-(4-(5-chloro-7-fluoro-6-(3-hydroxy-1-naphthalenyl)-2,1-benzothiazol-3-yl)-1-piperazinyl)-2-propen-1-one], the figure is 760 nM; as for `C=C(CO)C(=O)N1CCN(c2snc3c(F)c(-c4cc(O)cc5ccccc45)c(Cl)cc23)CC1` (single isomer, unassigned) [Example 18-3, 1-(4-(5-chloro-7-fluoro-6-(3-hydroxy-1-naphthalenyl)-2,1-benzothiazol-3-yl)-1-piperazinyl)-2-(hydroxymethyl)-2-propen-1-one], 24600 nM; as for `C=CC(=O)N1CCN(c2snc3c(F)c(-c4cc(O)cc5ccccc45)c(Cl)cc23)[C@@H](C)C1` [Example 1-19-1, 1-((3S)-4-(5-chloro-7-fluoro-6-(3-hydroxy-1-naphthalenyl)-2,1-benzothiazol-3-yl)-3-methyl-1-piperazinyl)-2-propen-1-one], 115 nM.
Still for that read-out and setting: next, `C=CC(=O)N1CCN(c2nc(=O)n(-c3ccccc3C(C)C)c3cc(-c4c(O)cccc4F)c(Cl)cc23)[C@@H](C)C1` [Example 8-3, 6-chloro-7-(2-fluoro-6-hydroxyphenyl)-4-((2S)-2-methyl-4-(2-propenoyl)-1-piperazinyl)-1-(2-(2-propanyl)phenyl)-2(1H)-quinazolinone]: 283 nM; `C=CC(=O)N1CCN(c2nc(=O)n(-c3ccccc3C(C)C)c3cc(-c4c(O)cccc4F)c(Cl)cc23)[C@@H](C)C1` [Example 8-3-1, 6-chloro-7-(2-fluoro-6-hydroxy-phenyl)-4-((2S)-2-methyl-4-(2-propenoyl)-1-piperazinyl)-1-(2-(2-propanyl)-phenyl)-2(1H)-quinazolinone]: 282 nM; `C=CC(=O)N1CCN(c2nnc(-c3ccccc3C(C)C)c3cc(-c4c(O)cccc4F)c(C)nc23)CC1` [Example 27, 1-(4-(3-(2-Fluoro-6-hydroxyphenyl)-2-methyl-5-(2-(2-propanyl)phenyl)pyrido[2,3-d]pyridazin-8-yl)-1-piperazinyl)-2-propen-1-one]: 1280 nM.
Take `C=CC(=O)N1CCN(c2nc(=O)n(-c3c(C)ccnc3C3CC3)c3nc(-c4c(O)cccc4F)c(F)cc23)[C@@H](C)C1` [Example 42-1, 1-(2-cyclopropyl-4-methyl-3-pyridinyl)-6-fluoro-7-(2-fluoro-6-hydroxyphenyl)-4-((2S)-2-methyl-4-(2-propenoyl)-1-piperazinyl)pyrido-[2,3-d]pyrimidin-2(1H)-one]: the IC50 in assay [2] (MIA PaCa-2 cells) was 103 nM; in assay [3] it was 150 nM.
Turning to `C=CC(=O)N1CCN(c2nc(=O)n(-c3c(C(C)C)ncnc3C(C)C)c3nc(-c4ccccc4F)c(Cl)cc23)[C@@H](C)C1` [Example 43, 6-Chloro-1-(4,6-di(2-propanyl)-5-pyrimidinyl)-7-(2-fluorophenyl)-4-((2S)-2-methyl-4-(2-propenoyl)-1-piperazinyl)pyrido[2,3-d]pyrimidin-2(1H)-one], the IC50 in assay [2] (setting [4]) came to 34 nM; in assay [3] it was 38 nM.
As to `C=CC(=O)N1CCN(c2nc(=O)n(-c3c(C)ccnc3C3CC3)c3nc(-c4c(O)cccc4F)c(Cl)cc23)[C@@H](C)C1` [Example 44-1], the 50% inhibitory concentration (IC50) in assay [2] (MIA PaCa-2 cells) came to 25 nM; in assay [3], 33 nM.
In the same order, the values of `C=CC(=O)N1CCN(c2nc(=O)n(-c3c(C)ccnc3C3CC3)c3nc(-c4c(O)cccc4F)c(Cl)cc23)[C@@H](C)C1` [Example 44-2] are 138 nM and 208 nM.
In the same order, the values of `C=CC(=O)N1CCN(c2nc(=O)n(-c3c(C)ccnc3C3CC3)c3nc(-c4c(O)cccc4F)c(Cl)cc23)[C@@H](C)C1` [Example 44] are 65 nM and 103 nM.
Take `C=CC(=O)N1CCN(c2nc(=O)n(-c3c(C)ccnc3C3CC3)c3nc(-c4ccccc4F)c(Cl)cc23)[C@@H](C)C1` [Example 45, 6-Chloro-1-(2-cyclopropyl-4-methyl-3-pyridinyl)-7-(2-fluorophenyl)-4-((2A)-2-methyl-4-(2-propenoyl)-1-piperazinyl)pyrido[2,3-d]pyrimidin-2(1H)-one]: the results for the IC50 in assay [2] (MIA PaCa-2 cells) and in assay [3] were 62 nM and 319 nM, respectively.
In the same order, the values of `C=CC(=O)N1CCN(c2nc(=O)n(-c3c(C)ccnc3CC)c3nc(-c4ccccc4F)c(Cl)cc23)[C@@H](C)C1` [Example 46, 6-Chloro-1-(2-ethyl-4-methyl-3-pyridinyl)-7-(2-fluorophenyl)-4-((2S)-2-methyl-4-(2-propenoyl)-1-piperazinyl)pyrido[2,3-d]pyrimidin-2(1H)-one] are 169 nM and 493 nM.
As for `C=CC(=O)N1CCN(c2nc(=O)n(-c3c(C)ccnc3CC)c3nc(-c4ccccc4F)c(Cl)cc23)[C@@H](C)C1` [Example 46-1, 6-chloro-1-(2-ethyl-4-methyl-3-pyridinyl)-7-(2-fluorophenyl)-4-((2S)-2-methyl-4-(2-propenoyl)-1-piperazinyl)pyrido-[2,3-d]pyrimidin-2(1H)-one], the IC50 in assay [2] (MIA PaCa-2 cells) was determined as 126 nM; in assay [3] it was 170 nM.
In the same order, the values of `C=CC(=O)N1CCN(c2nc(=O)n(-c3c(C)ccnc3CC)c3nc(-c4ccccc4F)c(Cl)cc23)[C@@H](C)C1` [Example 46-2, 6-chloro-1-(2-ethyl-4-methyl-3-pyridinyl)-7-(2-fluorophenyl)-4-((2S)-2-methyl-4-(2-propenoyl)-1-piperazinyl)pyrido-[2,3-d]pyrimidin-2(1H)-one] are 552 nM and 971 nM.
Regarding `C=CC(=O)N1CCN(c2nc(=O)n(-c3c(CC)ncnc3CC)c3nc(-c4ccccc4F)c(Cl)cc23)[C@@H](C)C1` [Example 47, 6-Chloro-1-(4,6-diethyl-5-pyrimidinyl)-7-(2-fluorophenyl)-4-((2S)-2-methyl-4-(2-propenoyl)-1-piperazinyl)pyrido[2,3-d]pyrimidin-2(1H)-one], the IC50 in assay [2] (setting [4]) worked out at 152 nM; in assay [3], 409 nM.
Take `C=CC(=O)N1CCN(c2nc(=O)n(-c3ccccc3C(C)(C)C)c3nc(-c4c(O)cccc4F)c(Cl)cc23)[C@@H](C)C1` [Example 49, 6-Chloro-7-(2-fluoro-6-hydroxyphenyl)-1-(2-(2-methyl-2-propanyl)phenyl)-4-((2S)-2-methyl-4-(2-propenoyl)-1-piperazinyl)pyrido[2,3-d]pyrimidin-2(1H)-one]: the IC50 turned out to be 154 nM in assay [2] (MIA PaCa-2 cells) and 177 nM in assay [3].
In the same order, the values of `C=CC(=O)N1CCN(c2nc(=O)n(-c3ccccc3C(C)C)c3nc(-c4ccccc4F)c(C)nc23)[C@@H](C)C1` [Example 51, 7-(2-Fluorophenyl)-6-methyl-4-((2A)-2-methyl-4-(2-propenoyl)-1-piperazinyl)-1-(2-(2-propanyl)phenyl)-2(1H)-pteridinone] are 440 nM and 538 nM.
In the same order, the values of `C=CC(=O)N1CCN(c2nc(=O)n(-c3c(C)cnn3C(C)C)c3nc(-c4ccccc4F)c(Cl)cc23)[C@@H](C)C1` [Example 53, 6-Chloro-7-(2-fluorophenyl)-1-(4-methyl-1-(2-propanyl)-1H-pyrazol-5-yl)-4-((2S)-2-methyl-4-(2-propenoyl)-1-piperazinyl)pyrido[2,3-d]pyrimidin-2(1H)-one] are 71 nM and 125 nM.
